Data reported in patent publication US20200181671A1, “Method for Increasing Content of Mogroside V in Siraitia Grosvenorii Suspended Cells” (Guilin Layn Natural Ingredients Corp, priority 2017, published 2020).

Key:
[1] = test system: Siraitia grosvenorii suspended cells; assay: Content (yield) of mogroside V in Siraitia grosvenorii suspended cells under different treatment conditions, HPLC; format: cell-based
Experimental: (§1) Weighing 1.5 g Siraitia grosvenorii dry weight cells, adding 60% ethanol at a feed-to-liquid ratio of 15:1, ultrasonically extracting for 40 min, extracting for 2 h at 90° C. in a slightly boiling state, repeating the extraction for 3 times, and combining the extracts to concentrate them to 5 mL in a rotary evaporator. The concentrate was filtered through a 0.22 μm filtration membrane, and then qualitative and quantitative analysis was performed using a high-performance liquid chromatograph.
Chromatographic conditions: The chromatographic column was an inverted C18 column, 4.6 mm×250 mm; the mobile phase was water-acetonitrile at a ratio of 78:22, the flow rate was 1.0 mL/min; and the detection wavelength was 203 nm.

[2] = test system: Siraitia grosvenorii suspended cells; assay: Content of mogroside II in Siraitia grosvenorii suspended cells at the peak of mogroside V, HPLC; format: cell-based; conditions: n = 5, x ± s
Experimental: as §1, with “feed to liquid” for “feed-to-liquid”
Chromatographic conditions: The chromatographic column was a ZORBAX SBC C18 column, 4.6 mm×150 mm; the mobile phase was water-acetonitrile gradient elution (0-25 min, 13.5% to 35% acetonitrile), the flow rate was 0.8 mL/min; and the detection wavelength was 203 nm.

[3] = test system: Siraitia grosvenorii suspended cells; assay: Content (yield) of mogroside V in Siraitia grosvenorii suspended cells under different treatment conditions, HPLC; format: cell-based; conditions: suspended cells in the logarithmic growing period treated with methyl jasmonate alone
[4] = test system: suspension culture cells of Maackia amurensis Rupr. et Maxim; conditions: 200 μmol/L, 9 days; cited from earlier work
[5] = test system: Taxus chinensis suspended cells; conditions: 100 μmol/L; cited from earlier work
pueraria suspended cells = conditions: 1.0 mg/L; cited from earlier work
[6] = test system: Siraitia Grosvenorii Cell Culture System; conditions: 500 mg/L; cited from earlier work

For `CC/C=C\CC1C(=O)CCC1CC(=O)OC` (stereo not shown) [Comparative Example 4], the “yield of mogroside V per unit time” value ([1]; 1 d of culture, n = 5, x ± s) was 31.1 ± 0.8 g/L, the “yield of mogroside V per unit time” value ([1]; 3 d of culture, n = 5, x ± s) was 32.6 ± 0.9 g/L and the “yield of mogroside V per unit time” value ([1]; 5 d of culture, n = 5, x ± s) was 33.2 ± 1.1 g/L. The “yield of mogroside V per unit time” value ([1]; 7 d of culture, n = 5, x ± s) was 33.5 ± 1.5 g/L, the “yield of mogroside V per unit time” value ([1]; 9 d of culture, n = 5, x ± s) was 39.5 ± 2.0 g/L and the “yield of mogroside V per unit time” value ([1]; 11 d of culture, n = 5, x ± s) was 46.5 ± 1.8 g/L. For the same compound, the “yield of mogroside V per unit time” value ([1]; 13 d of culture, n = 5, x ± s) was 51.6 ± 1.8 g/L, the “yield of mogroside V per unit time” value ([1]; 15 d of culture, n = 5, x ± s) was 53.6 ± 1.5 g/L and the “yield of mogroside V per unit time” value ([1]; 17 d of culture, n = 5, x ± s) was 54.5 ± 1.6 g/L. The “yield of mogroside V per unit time” value ([1]; 19 d of culture, n = 5, x ± s) was 55.7 ± 1.8 g/L, the “yield of mogroside V per unit time” value ([1]; 21 d of culture, n = 5, x ± s) was 56.8 ± 2.0 g/L and the “yield of mogroside V per unit time” value ([1]; 23 d of culture, n = 5, x ± s) was 58.2 ± 2.2 g/L. The “yield of mogroside V per unit time” value ([1]; 25 d of culture, n = 5, x ± s) was 55.2 ± 2.4 g/L, the “yield of mogroside V per unit time” value ([1]; 27 d of culture, n = 5, x ± s) was 51.4 ± 2.5 g/L and the “yield of mogroside V per unit time” value ([1]; 29 d of culture, n = 5, x ± s) was 46.5 ± 2.4 g/L. The “yield of mogroside V per unit time” value ([1]; 31 d of culture, n = 5, x ± s) was 41.2 ± 2.5 g/L, the “Peak yield (maximum yield) of mogroside V” value ([1]; maximum over days 1 to 31 of culture, n = 5, x ± s) was 58.2 ± 2.2 g/L and the “Content of mogroside II” value [2] was 32.8 ± 2.6 g/L.
In the case of `CC/C=C\CC1C(=O)CCC1CC(=O)OC` (stereo not shown) [methyl jasmonate, Methyl jasmonate], the “total content of mogroside V” value ([1]; inducer added alone, compared with the normal culture group, result in words) is reported as “decreased compared with the normal culture group”, the “amount of synthesis of mogroside V per unit time” value ([1]; suspended cells in the logarithmic growing period treated with methyl jasmonate alone) is reported as “increased” and the cell browning [3] is reported as “cell browning phenomenon was obvious”. The “content of isoflavone, of that of the control of the same period” value [4] was 417.18%, the “increase of the content of paclitaxel” value [5] was 10 times and the “content of puerarin in the cell culture” value (pueraria suspended cells) was “increased”.
In the case of `N[C@@H](Cc1ccccc1)C(=O)O` [phenylalanine], the “increase of the total amount of mogroside V compared with the control group” value [6] is given as 260.38%.
